The structures appear in SMILES notation.

The target in this test is T1, Cys12 of the KRAS 4B G12C protein (Homo sapiens, UniProt P01116, G12C).
T1 construct: This protein contained 188 amino acids in total, including an N-terminal 6-Histidine tag; made in house; host or cells: E. coli BL21
Nature of the test: In vitro covalent adduct formation (CAF) assay, LC-MS intact mass. Format: binding. Particulars: 10 uM compound, 60 min. In short, it runs like this:
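GDP-loaded (>95%) His-TEV-tagged KRAS 4B G12C (residues 1–169), 5 μM in TBS pH 7.4, incubated with 10 μM compound (4% DMSO) at 22° C for one hour. Intact-protein LC-MS gave free:adduct ratios, reported as percent protein modified; duplicate runs.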

Turning to `C=CC(=O)N1[C@H](C)CN(c2nc(=O)n3c4c(c(-c5ccc(F)cc5F)c(C(F)(F)F)cc24)SC[C@@H]3CN2CCN(CC)CC2)C[C@@H]1C` (atropisomer, axis not shown) [Example 1329, (3S,10R)-7-((3S,5R)-4-acryloyl-3,5-dimethylpiperazin-1-yl)-10-(2,4-difluorophenyl)-3-((4-ethylpiperazin-1-yl)methyl)-9-(trifluoromethyl)-2,3-dihydro-5H-[1,4]thiazino[2,3,4-ij]quinazolin-5-one], the “% CAF 10 uM @ 60 min” value was 95.4%.
The figure for `C=CC(=O)N1[C@H](C)CN(c2nc(=O)n3c4c(c(-c5ccc(F)cc5F)c(C(F)(F)F)cc24)SC[C@@H]3CN2CCN(CC)CC2)C[C@@H]1C` (atropisomer, axis not shown) [Example 1330, (3S,10S)-7-((3S,5R)-4-acryloyl-3,5-dimethylpiperazin-1-yl)-10-(2,4-difluorophenyl)-3-((4-ethylpiperazin-1-yl)methyl)-9-(trifluoromethyl)-2,3-dihydro-5H-[1,4]thiazino[2,3,4-ij]quinazolin-5-one] is 85%.
The figure for `C=CC(=O)N1[C@H](C)CN(c2nc(=O)n3c4c(c(-c5cc(Cl)c(F)cc5F)c(C(F)(F)F)cc24)SC[C@@H]3CN2C[C@@H]3C[C@H]2CO3)C[C@@H]1C` (atropisomer, axis not shown) [Example 1331, (3S,10R)-3-(((1S,4S)-2-oxa-5-azabicyclo[2.2.1]heptan-5-yl)methyl)-7-((3S,5R)-4-acryloyl-3,5-dimethylpiperazin-1-yl)-10-(5-chloro-2,4-difluorophenyl)-9-(trifluoromethyl)-2,3-dihydro-5H-[1,4]thiazino[2,3,4-ij]quinazolin-5-one] is 94.5%; for `C=CC(=O)N1[C@H](C)CN(c2nc(=O)n3c4c(c(-c5cc(Cl)c(F)cc5F)c(C(F)(F)F)cc24)SC[C@@H]3CN2C[C@@H]3C[C@H]2CO3)C[C@@H]1C` (atropisomer, axis not shown) [Example 1332, (3S,10S)-3-(((1S,4S)-2-oxa-5-azabicyclo[2.2.1]heptan-5-yl)methyl)-7-((3S,5R)-4-acryloyl-3,5-dimethylpiperazin-1-yl)-10-(5-chloro-2,4-difluorophenyl)-9-(trifluoromethyl)-2,3-dihydro-5H-[1,4]thiazino[2,3,4-ij]quinazolin-5-one] it is 87%; for `C=CC(=O)N1C[C@H](C)N(c2nc(=O)n3c4c(c(-c5cc(Cl)c(F)cc5F)c(C(F)(F)F)cc24)SC[C@@H]3CN2C[C@@H]3C[C@H]2CO3)C[C@H]1C` (atropisomer, axis not shown) [Example 1334, (3S,10R)-3-(((1S,4S)-2-oxa-5-azabicyclo[2.2.1]heptan-5-yl)methyl)-7-((2S,5R)-4-acryloyl-2,5-dimethylpiperazin-1-yl)-10-(5-chloro-2,4-difluorophenyl)-9-(trifluoromethyl)-2,3-dihydro-5H-[1,4]thiazino[2,3,4-ij]quinazolin-5-one] it is 80%.
As to `C=CC(=O)N1C[C@H](C)N(c2nc(=O)n3c4c(c(-c5cc(Cl)c(F)cc5F)c(C(F)(F)F)cc24)SC[C@@H]3CN2C[C@@H]3C[C@H]2CO3)C[C@H]1C` (atropisomer, axis not shown) [Example 1335, (3S,10S)-3-(((1S,4S)-2-oxa-5-azabicyclo[2.2.1]heptan-5-yl)methyl)-7-((2S,5R)-4-acryloyl-2,5-dimethylpiperazin-1-yl)-10-(5-chloro-2,4-difluorophenyl)-9-(trifluoromethyl)-2,3-dihydro-5H-[1,4]thiazino[2,3,4-ij]quinazolin-5-one], the “% CAF 10 uM @ 60 min” value is listed as 29.7%.
To `C=CC(=O)N1CCN(c2nc(=O)n3c4c(c(-c5cc(Cl)c(F)cc5F)c(C(F)(F)F)cc24)SC[C@@H]3CN2CCN(CC)CC2)CC1` (atropisomer, axis not shown) [Example 1337, (3S,10S)-7-(4-acryloylpiperazin-1-yl)-10-(5-chloro-2,4-difluorophenyl)-3-((4-ethylpiperazin-1-yl)methyl)-9-(trifluoromethyl)-2,3-dihydro-5H-[1,4]thiazino[2,3,4-ij]quinazolin-5-one] belongs 96.7%; to `C=CC(=O)N1CCN(c2nc(=O)n3c4c(c(-c5cc(Cl)c(F)cc5F)c(C(F)(F)F)cc24)SC[C@@H]3CN2CCN(CC)CC2)CC1` (atropisomer, axis not shown) [Example 1338, (3S,10R)-7-(4-acryloylpiperazin-1-yl)-10-(5-chloro-2,4-difluorophenyl)-3-((4-ethylpiperazin-1-yl)methyl)-9-(trifluoromethyl)-2,3-dihydro-5H-[1,4]thiazino[2,3,4-ij]quinazolin-5-one], 99%; to `C=CC(=O)N1[C@H](C)CN(c2nc(=O)n3c4c(c(-c5cc(Cl)c(F)cc5F)c(C(F)(F)F)cc24)SC[C@@H]3CN2CCN(CC)CC2)C[C@@H]1C` (atropisomer, axis not shown) [Example 1339], 68.7%.
The figure for `C=CC(=O)N1[C@H](C)CN(c2nc(=O)n3c4c(c(-c5cc(Cl)c(F)cc5F)c(C(F)(F)F)cc24)SC[C@@H]3CN2CCN(CC)CC2)C[C@@H]1C` (atropisomer, axis not shown) [Example 1340, (3S,10S)-7-((3S,5R)-4-acryloyl-3,5-dimethylpiperazin-1-yl)-10-(5-chloro-2,4-difluorophenyl)-3-((4-ethylpiperazin-1-yl)methyl)-9-(trifluoromethyl)-2,3-dihydro-5H-[1,4]thiazino[2,3,4-ij]quinazolin-5-one] is 89.4%.
The figure for `C=CC(=O)N1CCN(c2nc(=O)n3c4c(c(-c5cc(Cl)c(F)cc5F)c(C(F)(F)F)cc24)SC[C@@H]3CN2C[C@@H]3C[C@H]2CO3)CC1` (atropisomer, axis not shown) [Example 1341, (3S,10R)-3-(((1S,4S)-2-oxa-5-azabicyclo[2.2.1]heptan-5-yl)methyl)-7-(4-acryloylpiperazin-1-yl)-10-(5-chloro-2,4-difluorophenyl)-9-(trifluoromethyl)-2,3-dihydro-5H-[1,4]thiazino[2,3,4-ij]quinazolin-5-one] is 97.4%.
In the case of `C=CC(=O)N1CCN(c2nc(=O)n3c4c(c(-c5cc(Cl)c(F)cc5F)c(C(F)(F)F)cc24)SC[C@@H]3CN2C[C@@H]3C[C@H]2CO3)CC1` (atropisomer, axis not shown) [Example 1342, (3S,10S)-3-(((1S,4S)-2-oxa-5-azabicyclo[2.2.1]heptan-5-yl)methyl)-7-(4-acryloylpiperazin-1-yl)-10-(5-chloro-2,4-difluorophenyl)-9-(trifluoromethyl)-2,3-dihydro-5H-[1,4]thiazino[2,3,4-ij]quinazolin-5-one], the “% CAF 10 uM @ 60 min” value is 44.1%.
The figure for `C=CC(=O)N1[C@H](C)CN(c2nc(=O)n3c4c(c(-c5ccc(F)cc5F)c(C(F)(F)F)cc24)SC[C@@H]3CN2CCN(C3CC3)CC2)C[C@@H]1C` (atropisomer, axis not shown) [Example 1346, (3S,10R)-7-((3S,5R)-4-acryloyl-3,5-dimethylpiperazin-1-yl)-3-((4-cyclopropylpiperazin-1-yl)methyl)-10-(2,4-difluorophenyl)-9-(trifluoromethyl)-2,3-dihydro-5H-[1,4]thiazino[2,3,4-ij]quinazolin-5-one] is 96.9%; for `C=CC(=O)N1[C@H](C)CN(c2nc(=O)n3c4c(c(-c5ccc(F)cc5F)c(C(F)(F)F)cc24)SC[C@@H]3CN2CCN(C3CC3)CC2)C[C@@H]1C` (atropisomer, axis not shown) [Example 1347, (3S,10S)-7-((3S,5R)-4-acryloyl-3,5-dimethylpiperazin-1-yl)-3-((4-cyclopropylpiperazin-1-yl)methyl)-10-(2,4-difluorophenyl)-9-(trifluoromethyl)-2,3-dihydro-5H-[1,4]thiazino[2,3,4-ij]quinazolin-5-one] it is 89.7%; for `C=CC(=O)N1[C@H](C)CN(c2nc(=O)n3c4c(c(-c5cc(Cl)c(F)cc5F)c(C(F)(F)F)cc24)SC[C@@H]3CN2CCN(C3CC3)CC2)C[C@@H]1C` (atropisomer, axis not shown) [Example 1348, (3S,10R)-7-((3S,5R)-4-acryloyl-3,5-dimethylpiperazin-1-yl)-10-(5-chloro-2,4-difluorophenyl)-3-((4-cyclopropylpiperazin-1-yl)methyl)-9-(trifluoromethyl)-2,3-dihydro-5H-[1,4]thiazino[2,3,4-ij]quinazolin-5-one] it is 94.4%.
To `C=CC(=O)N1[C@H](C)CN(c2nc(=O)n3c4c(c(-c5cc(Cl)c(F)cc5F)c(C(F)(F)F)cc24)SC[C@@H]3CN2CCN(C3CC3)CC2)C[C@@H]1C` (atropisomer, axis not shown) [Example 1349, (3S,10S)-7-((3S,5R)-4-acryloyl-3,5-dimethylpiperazin-1-yl)-10-(5-chloro-2,4-difluorophenyl)-3-((4-cyclopropylpiperazin-1-yl)methyl)-9-(trifluoromethyl)-2,3-dihydro-5H-[1,4]thiazino[2,3,4-ij]quinazolin-5-one] belongs 86.9%; to `C=CC(=O)N1CCN(c2nc(=O)n3c4c(c(-c5cc(Cl)c(F)cc5F)c(C(F)(F)F)cc24)SC[C@@H]3CN2CCN(C3CC3)CC2)CC1` (atropisomer, axis not shown) [Example 1355, (3S,10R)-7-(4-acryloylpiperazin-1-yl)-10-(5-chloro-2,4-difluorophenyl)-3-((4-cyclopropylpiperazin-1-yl)methyl)-9-(trifluoromethyl)-2,3-dihydro-5H-[1,4]thiazino[2,3,4-ij]quinazolin-5-one], 99.2%.

The values are drawn from US20230107642A1 (Erasca, Inc., priority 2020, published 2023).
